Our source for the IC50 and solubility values is ChEMBL document CHEMBL2163210, “Aryl Piperazinyl Ureas as Inhibitors of Fatty Acid Amide Hydrolase (FAAH) in Rat, Dog, and Primate” (ACS Med Chem Lett, 2012).

The target of data set [1] is T1, Fatty-acid amide hydrolase 1 (Homo sapiens, UniProt O00519).
T1 sequence (O00519 whole entry): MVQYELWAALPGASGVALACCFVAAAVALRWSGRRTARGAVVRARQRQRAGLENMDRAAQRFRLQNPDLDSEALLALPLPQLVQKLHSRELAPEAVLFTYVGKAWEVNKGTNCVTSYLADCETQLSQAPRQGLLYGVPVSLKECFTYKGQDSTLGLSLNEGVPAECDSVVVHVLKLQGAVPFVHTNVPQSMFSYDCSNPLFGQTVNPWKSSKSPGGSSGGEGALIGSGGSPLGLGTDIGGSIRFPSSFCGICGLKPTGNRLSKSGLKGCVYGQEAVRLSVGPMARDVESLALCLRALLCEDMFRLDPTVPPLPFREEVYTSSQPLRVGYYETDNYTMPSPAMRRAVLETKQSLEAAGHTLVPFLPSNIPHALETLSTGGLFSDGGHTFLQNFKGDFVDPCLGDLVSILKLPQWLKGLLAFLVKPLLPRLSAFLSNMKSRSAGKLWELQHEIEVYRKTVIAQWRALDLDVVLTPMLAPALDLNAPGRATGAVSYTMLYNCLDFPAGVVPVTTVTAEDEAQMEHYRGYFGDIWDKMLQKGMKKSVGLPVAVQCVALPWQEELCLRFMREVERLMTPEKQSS
As to the kind of experiment: Inhibition of human FAAH.

The target of data set [2] is T2, Fatty-acid amide hydrolase 1 (Rattus norvegicus, UniProt P97612).
T2 sequence (P97612 whole entry): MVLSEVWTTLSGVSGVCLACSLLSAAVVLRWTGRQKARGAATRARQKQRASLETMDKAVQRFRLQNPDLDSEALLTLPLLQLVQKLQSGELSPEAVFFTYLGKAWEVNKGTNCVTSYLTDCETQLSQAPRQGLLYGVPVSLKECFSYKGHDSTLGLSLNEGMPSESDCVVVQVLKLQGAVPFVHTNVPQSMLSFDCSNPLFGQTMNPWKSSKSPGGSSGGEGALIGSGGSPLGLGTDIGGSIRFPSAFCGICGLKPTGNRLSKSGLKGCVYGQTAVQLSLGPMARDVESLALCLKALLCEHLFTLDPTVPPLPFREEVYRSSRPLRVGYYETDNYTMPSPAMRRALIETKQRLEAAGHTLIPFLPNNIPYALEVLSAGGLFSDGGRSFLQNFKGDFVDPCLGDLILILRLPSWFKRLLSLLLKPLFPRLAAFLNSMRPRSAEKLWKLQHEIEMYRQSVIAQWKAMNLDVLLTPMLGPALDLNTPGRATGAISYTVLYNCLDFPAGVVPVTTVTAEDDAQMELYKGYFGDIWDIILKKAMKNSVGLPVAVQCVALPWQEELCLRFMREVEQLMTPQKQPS
As to the kind of experiment: Inhibition of rat FAAH.

Data set [3] addresses T1, Fatty-acid amide hydrolase 1. As to the kind of experiment: Inhibition of human FAAH after 1 hr.
In data set [4] the target is T2, Fatty-acid amide hydrolase 1.
Description: Inhibition of rat FAAH after 1 hr
Data set [5] is described as follows: Solubility of the compound in deionized water. The class given is physicochemical.
In data set [6] the target is T3, Fatty-acid amide hydrolase 2 (Homo sapiens, UniProt Q6GMR7).
T3 sequence (Q6GMR7 whole entry): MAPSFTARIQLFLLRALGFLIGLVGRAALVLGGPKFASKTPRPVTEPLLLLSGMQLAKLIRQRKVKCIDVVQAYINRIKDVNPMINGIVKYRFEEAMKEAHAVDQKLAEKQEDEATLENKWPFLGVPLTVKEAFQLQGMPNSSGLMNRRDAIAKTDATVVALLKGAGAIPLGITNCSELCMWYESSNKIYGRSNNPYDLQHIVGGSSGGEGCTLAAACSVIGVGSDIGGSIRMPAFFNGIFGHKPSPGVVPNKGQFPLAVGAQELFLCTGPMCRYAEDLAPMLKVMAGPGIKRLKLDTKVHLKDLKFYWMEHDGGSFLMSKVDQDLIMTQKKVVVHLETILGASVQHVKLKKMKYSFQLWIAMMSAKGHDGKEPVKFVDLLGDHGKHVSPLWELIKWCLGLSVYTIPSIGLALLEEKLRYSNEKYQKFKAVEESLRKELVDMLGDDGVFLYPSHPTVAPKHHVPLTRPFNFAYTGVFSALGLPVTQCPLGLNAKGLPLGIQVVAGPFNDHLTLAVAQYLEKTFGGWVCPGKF
As to the kind of experiment: Inhibition of FAAH2.

`COc1cc(Br)cc(CN2CCN(C(=O)Nc3ccccc3)CC2)c1O`: the concentration for half-maximal inhibition (IC50) in data set [1] was 120 nM; in data set [2] it was 243 nM.

Turning to `O=C(Nc1ccccc1)N1CCN(Cc2ccc(Oc3ccc(Cl)cc3)cc2)CC1`, the IC50 in data set [3] came out at 62 nM; in data set [4], 4000 nM.

As for `O=C(Nc1ccccc1)N1CCN(Cc2cccc(F)c2)CC1`, the IC50 in data set [3] is 2470 nM; in data set [4], > 10000 nM.

Take `COc1ccc(CN2CCN(C(=O)Nc3ccccc3)CC2)cc1`: it took 490 nM to reach half-maximal inhibition in data set [3] (IC50).

Take `O=C(Nc1ccccc1)N1CCN(Cc2ccc(F)cc2)CC1`: the IC50 in data set [3] was 2770 nM; in data set [4], > 10000 nM.

Regarding `Cl.O.O=C(Nc1cccnc1)N1CCN(Cc2cccc(Oc3ccc(Cl)cc3)c2)CC1`, the solubility in data set [5] was > 20 mg/mL.

`Cc1ccc(Oc2cccc(CN3CCN(C(=O)Nc4ccccc4)CC3)c2)cc1`: the IC50 in data set [3] was found to be 11 nM; in data set [4], 640 nM.

With `O=C(Nc1ccccn1)N1CCN(Cc2cccc(Oc3ccc(Cl)cc3)c2)CC1`, the results for the IC50 in data set [3] and in data set [4] were 12 nM and 470 nM, respectively.

As to `O=C(Nc1cccnc1)N1CCC(Cc2cccc(Oc3ccc(C(F)(F)F)cn3)c2)CC1`, the IC50 in data set [6] was > 10000 nM.

Consider `O=C(Nc1ccccc1)N1CCN(Cc2ccccc2)CC1`, for which the IC50 in data set [3] and in data set [4] was > 10000 nM in each case.

`COc1cccc(CN2CCN(C(=O)Nc3ccccc3)CC2)c1` yielded an IC50 in data set [3] of 1530 nM.

As to `CC(C)(C)c1ccc(Oc2cccc(CN3CCN(C(=O)Nc4ccccc4)CC3)c2)cc1`, the IC50 in data set [3] amounted to 46 nM; in data set [4], 75 nM.

`O=C(Nc1ccncn1)N1CCN(Cc2cccc(Oc3ccc(Cl)cc3)c2)CC1`: the IC50 was determined as 41 nM in data set [3] and 1500 nM in data set [4].

With `O=C(Nc1ccccc1)N1CCN(Cc2ccc(Oc3ccccc3)cc2)CC1`, the IC50 in data set [3] was 2830 nM; in data set [4], > 10000 nM.

A word on the IC50: it is the point on the concentration scale where inhibition reaches its midpoint. Higher therefore signals weaker potency in that assay. Broadly, the solubility is how much of the substance goes into solution per volume. The low end stands for a poorly soluble substance, the high end for a readily soluble substance.
